Read-outs that look alike come from different tables or passages of the source.

Data set [1] concerns mouse apolipoprotein B protein. Put plainly: High fat fed mice (Example 51): serum apolipoprotein B protein, immunoblot. Type of data set: in vivo. As to conditions: high fat fed C57Bl/6 mice; 50 mg/kg i.p. twice weekly. The source says:
Furthermore, at 1, 2, 3 and 4 weeks of treatment, a inverse correlation between inhibition of target mRNA and cholesterol levels (total, HDL and LDL) is observed, with cholesterol levels lowering as percent inhibition of apolipoprotein B mRNA becomes greater. Serum samples were subjected to immunoblot analysis using an antibody to detect mouse apolipoprotein B protein (Gladstone Institute, San Francisco, Calif.).

The format of data set [2] is in vivo, mouse. As to conditions: for Cholesterol Levels / Glucose Levels / Lipoprotein Levels HDL / Lipoprotein Levels LDL / Lipoprotein Levels VLDL: ApoE knockout mice, high fat diet, six weeks; for Liver Enzyme Levels ALT / Liver Enzyme Levels AST: mouse, in vivo, ip. The source says: Female ApoE knockout mice ranged in age from 5 to 7 weeks and were placed on a normal diet for 2 weeks before study initiation. ApoE knockout mice were then fed ad libitum a 60% fat diet, with 0.15% added cholesterol to induce dyslipidemia and obesity. Control animals were maintained on a high-fat diet with no added cholesterol. […]
At study termination and forty eight hours after the final injections, animals were sacrificed and evaluated for target mRNA levels in liver by RT-PCR methods verified by Northern Blot analysis, glucose levels, cholesterol and lipid levels by HPLC separation methods and triglyceride and liver enzyme levels (performed by LabCorp Preclinical Services; San Diego, Calif.).
Data are normalized to saline controls.

Data set [3] deals with mouse apolipoprotein B protein. Put plainly: High fat fed C57BL/6 mice, 6 week timecourse: liver apolipoprotein B protein, immunoblot. In kind it is in vivo. The conditions noted are these: 5, 25, 50 mg/kg, six weeks. The text has this:
Liver protein samples collected at the end of the treatment period were subjected to immunoblot analysis using an antibody directed to mouse apolipoprotein B protein (Gladstone Institute, San Francisco, Calif.).
A general note: In western blotting, separated proteins are transferred to a membrane and probed.

The subject of data set [4] is mouse apolipoprotein B mRNA. Put plainly: Transgenic mice dosing study (Example 52): mouse apolipoprotein B mRNA in liver. Type of data set: in vivo. As to conditions: for % Inhibition, mouse apolipoprotein B mRNA: liver, 12 weeks. As for the experimental part: (§1) A long-term study of inhibition of human apolipoprotein B by ISIS 301012 in C57BL/6NTac-TgN(APOB100) mice (Taconic, Germantown, N.Y.) was conducted for a 3 month period. Mice were dosed intraperitoneally twice a week with 10 or 25 mg/kg ISIS 301012 (SEQ ID No: 247) for 12 weeks. Saline-injected animals served as controls. Each treatment group comprised 4 animals.
(§2) The study was terminated forty eight hours after the final injections in the eighth week of treatment, when animals were sacrificed and evaluated for target mRNA levels in liver, apolipoprotein B protein levels in liver and serum cholesterol and liver enzyme levels. In addition, the expression of endogenous mouse apolipoprotein B levels in liver was measured to evaluate any effects of ISIS 301012 on mouse apolipoprotein B mRNA expression.
(§3) Human and mouse apolipoprotein B mRNA levels in livers of animals treated for 12 weeks were measured by real-time PCR as described herein. Each result represents the average of data from 4 animals.

A short description of data set [5]: Long-term study in lean Cynomolgous monkeys (Example 64): intact oligonucleotide in liver by capillary gel electrophoresis. The conditions noted are these: for antisense oligonucleotide concentration: liver tissue, one month. In kind it is in vivo, Cynomolgous monkey. The method, then: The results from the one month interval of the long term treatment are shown in Table 50 and are normalized to saline-treated animals for mRNA and to untreated baseline values for lipid levels. Total cholesterol, LDL-cholesterol, HDL-cholesterol, LDL particle concentration and triglyceride levels in serum were measured by nuclear magnetic resonance spectroscopy by Liposcience (Raleigh, N.C.). Additionally, the concentration of intact oligonucleotide in liver was measured by capillary gel electrophoresis and is presented as micrograms of oligonucleotide per gram of liver tissue. Each result represents the average of data from 4 animals (2 males and 2 females).

For data set [6], the system named is mouse apolipoprotein B mRNA. The experiment in a line: Long-term study in lean CD-1 mice (Example 63): apolipoprotein B mRNA in liver. In kind it is in vivo. As to conditions: after one month of treatment. The method, then: In accordance with the present invention, the toxicity of ISIS 301012 (SEQ ID NO: 247) is investigated in a long-term, 3 month study in mice. Two-month old male and female CD-1 mice (Charles River Laboratories, Wilmington, Mass.) are dosed with 2, 5, 12.5, 25 or 50 mg/kg of ISIS 301012 twice per week for first week, and every 4 days thereafter. The mice are maintained on a standard rodent diet. Saline and control oligonucleotide animals serve as controls and are injected on the same schedule. Each treatment group contains 6 to 10 mice of each sex, and each treatment group is duplicated, one group for a 1 month study termination, the other for a 3 month study termination. After the 1 or 3 month treatment periods, the mice are sacrificed and evaluated for target expression in liver, lipid levels in serum and indicators of toxicity. Liver samples are procured, RNA is isolated and apolipoprotein B mRNA expression is measured by real-time PCR as described in other examples herein. Serum lipids, including total cholesterol, LDL-cholesterol, HDL-cholesterol and triglycerides, are evaluated by routine clinical analysis using an Olympus Clinical Analyzer (Olympus America Inc., Melville, N.Y.). Ratios of LDL-cholesterol to HDL-cholesterol and total cholesterol to HDL-cholesterol are also calculated. […]

Data set [7] deals with human apolipoprotein B mRNA. The experiment in a line: Transgenic mice dosing study (Example 52): human apolipoprotein B mRNA in liver. In kind it is in vivo, human transgene in mouse. As to conditions: for % Inhibition, human apolipoprotein B mRNA: liver, 12 weeks. As for the experimental part:
as §1, §2, §3

As to “GTCCCTGAAGATGTCAATGC (2'-MOE gapmer, further chemistry not given here) [ISIS 147764]”, the “apolipoprotein B protein in serum (immunoblot)” value in data set [1] was “markedly reduced within 48 hours”. In data set [2] (5 mg/kg i.p. every three days), the “Cholesterol Levels” value was 1630 mg/dL, the “Glucose Levels” value was 195 mg/dL, the “Lipoprotein Levels HDL” value stood at 49 mg/dL and the “Lipoprotein Levels LDL” value is 475 mg/dL. In addition, the “Lipoprotein Levels VLDL” value in data set [2] (5 mg/kg i.p. every three days) amounted to 1111 mg/dL. Also, in data set [2] (25 mg/kg i.p. every three days), the “Cholesterol Levels” value stood at 1750 mg/dL, the “Glucose Levels” value worked out at 209 mg/dL, the “Lipoprotein Levels HDL” value is 62 mg/dL and the “Lipoprotein Levels LDL” value amounted to 500 mg/dL. The “Lipoprotein Levels VLDL” value in data set [2] (25 mg/kg i.p. every three days) is 1194 mg/dL. Besides, in data set [2] (50 mg/kg i.p. every three days), the “Cholesterol Levels” value was 1490 mg/dL, the “Glucose Levels” value was 191 mg/dL, the “Lipoprotein Levels HDL” value is reported as 61 mg/dL and the “Lipoprotein Levels LDL” value is listed as 325 mg/dL. Besides, the “Lipoprotein Levels VLDL” value in data set [2] (50 mg/kg i.p. every three days) is recorded as 1113 mg/dL. Besides, in data set [2] (5 mg/kg), the “Liver Enzyme Levels ALT” value amounted to 48 IU/L and the “Liver Enzyme Levels AST” value was determined as 50 IU/L. Moreover, in data set [2] (25 mg/kg), the “Liver Enzyme Levels ALT” value was determined as 59 IU/L and the “Liver Enzyme Levels AST” value turned out to be 60 IU/L. Also, in data set [2] (50 mg/kg), the “Liver Enzyme Levels ALT” value turned out to be 87 IU/L and the “Liver Enzyme Levels AST” value is 85 IU/L. In addition, the “apolipoprotein B protein expression in liver (immunoblot)” value in data set [3] is “decreases apolipoprotein B protein expression in liver in a dose-dependent manner”.
In the case of “ISIS 301012: SEQ ID NO: 247, antisense oligonucleotide targeted to human apolipoprotein B (antisense GCCTCAGTCTGCTTCGCACC; chemistry not given here)”, in data set [4] (12 weeks of treatment), the “mouse liver apolipoprotein B mRNA” value is on record as “unaffected”. The “% Inhibition, mouse apolipoprotein B mRNA” value in data set [4] (10 mg/kg i.p. twice a week) and in data set [4] (25 mg/kg i.p. twice a week) was 6% in each case. Also, the antisense oligonucleotide concentration stood at 92 µg/g in data set [5] (intravenous 2 mg/kg), 179 µg/g in data set [5] (intravenous 4 mg/kg), 550 µg/g in data set [5] (intravenous 12 mg/kg) and 855 µg/g in data set [5] (subcutaneous 20 mg/kg). Further, the “accumulation of antisense oligonucleotide in the liver” value in data set [5] (one month interval) is reported as “accumulates in the liver in a dose-dependent manner”. The “reduction of mouse apolipoprotein B mRNA levels in liver” value in data set [6] is recorded as 53%. In addition, the “reduction of human apolipoprotein B mRNA in liver” value in data set [7] (12 weeks of treatment) is recorded as no more than 75%. The “% Inhibition, human apolipoprotein B mRNA” value in data set [7] (10 mg/kg i.p. twice a week) turned out to be 65%; in data set [7] (25 mg/kg i.p. twice a week), 75%.
